Data taken from patent US9988366B2, “Pesticidally active heterocyclic derivatives with sulphur containing substituents” (Syngenta Participations AG, priority 2014, dated 2018).

Experiments:
Format in all cases: in vivo
[1] = tested on: Diabrotica balteata (corn root worm); assay: Example B4: Diabrotica balteata larvae L2 on maize sprouts, feeding/contact, preventative; conditions: 120 h, 5 days, read-out: activity (larval mortality and growth regulation)
Experimental: Example B4: Activity Against Diabrotica balteata (Corn Root Worm)
(Larvae L2 on Maize Sprouts, Feeding/Contact, Preventative)
Maize sprouts, placed on an agar layer in 24 well micro titer plates were treated with test solutions by spraying. After drying, the MTPs were infested with L2 larvae (6-10 per well). After an incubation period of 5 days, samples were checked for larval mortality and growth regulation.

[2] = tested on: Myzus persicae (green peach aphid); assay: Example B5: Myzus persicae feeding/residual contact activity, preventive, mixed population (sunflower leaf discs); conditions: foliar, 144 h, mixed population on sunflower leaf discs, 6 DAT
Experimental: Example B5: Activity Against Myzus persicae (Green Peach Aphid)
(Feeding/Residual Contact Activity, Preventive), Mixed Population
Sunflower leaf discs were placed on agar in a 24-well microtiter plate and sprayed with test solutions. After drying, the leaf discs were infested with an aphid population of mixed ages. After an incubation period of 6 DAT, samples were checked for mortality and special effects (e.g. phytotoxicity).

[3] = tested on: Myzus persicae (green peach aphid); assay: Example B6: Myzus persicae feeding activity sachet test, mixed population; conditions: 120 h, sucrose solution, 5 days after infestation
Excerpt: Example B6: Activity Against Myzus persicae (Green Peach Aphid)
(Feeding Activity Sachet Test), Mixed Population
Test compounds were applied by pipette into 24 well plates and mixed with Sucrose solution. The plates were closed with a stretched Parafilm. A plastic stencil with 24 holes is placed onto the plate and infested pea seedlings were placed directly on the Parafilm. The infested plate is closed with a gel blotting paper and another plastic stencil and then turned upside down. 5 days after infestation the samples were checked on mortality. Application rate: 12.5 ppm.

[4] = tested on: Spodoptera littoralis (Egyptian cotton leaf worm); assay: Example B1: Spodoptera littoralis larvicide, feeding/residual contact activity, preventive (cotton leaf discs); conditions: foliar, 72 h, L1 larvae on sprayed cotton leaf discs, 3 days after treatment, read-out: effect in at least one of the three categories (mortality, anti-feedancy, or growth inhibition)
Excerpt: Example B1: Activity Against Spodoptera littoralis (Egyptian Cotton Leaf Worm)
(§1) (Larvicide, Feeding/Residual Contact Activity, Preventive)
Cotton leaf discs were placed on agar in a 24-well microtiter plate and sprayed with test solutions. After drying, the leaf discs were infested with five L1 larvae. The samples were checked for mortality, repellent effect, feeding behaviour, and growth regulation 3 days after treatment (DAT). Control of Spodoptera littoralis by a test sample is when at least one of mortality, anti-feedant effect, and growth inhibition is higher than an untreated sample.

[5] = tested on: Euschistus heros (neotropical brown stink bug); assay: Example B8: Euschistus heros, soybean leaf spray test; conditions: 120 h, N-2 nymphs on soybean leaf, 5 days after infestation
Experimental: Example B8: Activity Against Euschistus heros (Neotropical Brown Stink Bug)
Soybean leaf on agar in 24-well microtiter plates were sprayed with aqueous test solutions prepared from 10,000 ppm DMSO stock solutions. After drying the leaf were infested with N-2 nymphs. The samples were assessed for mortality 5 days after infestation.

[6] = tested on: Plutella xylostella (diamond back moth); assay: Example B3: Plutella xylostella larvicide, feeding/residual contact activity, preventive (artificial diet); conditions: 120 h, L2 larvae on artificial diet, 5 days, read-out: activity (larval mortality, antifeedant and growth regulation)
Experimental: Example B3: Activity Against Plutella xylostella (Diamond Back Moth)
as §1
24-well microtiter plate (MTP) with artificial diet was treated with test solutions by pipetting. After drying, the MTPs were infested with L2 larvae (10-15 per well). After an incubation period of 5 days, samples were checked for larval mortality, antifeedant and growth regulation.

Row | SMILES | mortality at 400 ppm [1] | mortality at 400 ppm [2] | mortality at 12.5 ppm [3] | percent control (mortality, anti-feedancy or growth inhibition) at 400 ppm [4] | mortality at 400 ppm [5] | mortality at 400 ppm [6]
1 | CCS(=O)(=O)c1cc(C(F)(F)F)cnc1-c1ncc(-c2cccc(C(F)(F)F)c2)n1C [Compound P1, 3-ethylsulfonyl-2-[1-methyl-5-[3-(trifluoromethyl)phenyl]imidazol-2-yl]-5-(trifluoromethyl)pyridine] | > 80% | > 80% | ≥ 80% | ≥ 80% | – | –
2 | CCS(=O)(=O)c1cc(C(F)(F)F)cnc1-c1ncc(-c2cncc(C(F)(F)F)c2)n1C [Compound P5] | – | > 80% | – | ≥ 80% | – | –
3 | CCS(=O)(=O)c1cc(C(F)(F)F)cnc1-c1nc(Cl)c(-c2ccc(C(F)(F)F)cc2)n1C [Compound P7] | > 80% | – | – | ≥ 80% | – | –
4 | CCS(=O)(=O)c1cc(C(F)(F)F)cnc1-c1ncc(-c2cccc(C(F)(F)F)n2)n1C [Compound P8] | – | > 80% | – | ≥ 80% | > 80% | –
5 | CCn1c(-c2ccc(C(F)(F)F)nc2)cnc1-c1ncc(C(F)(F)F)cc1S(=O)(=O)CC [Compound P11] | > 80% | > 80% | – | ≥ 80% | – | > 80%
6 | CCS(=O)(=O)c1cc(C(F)(F)F)cnc1-c1ncc(-c2cccc(SC(F)(F)F)c2)n1C [Compound P13] | – | – | – | ≥ 80% | – | –
7 | CCS(=O)(=O)c1cc(C(F)(F)F)cnc1-c1ncc(-c2cccc(S(=O)(=O)C(F)(F)F)c2)n1C [Compound P14] | – | > 80% | – | ≥ 80% | – | –
8 | CCS(=O)(=O)c1cc(C(F)(F)F)cnc1-c1nc(C)c(-c2ccc(C(F)(F)F)cc2)n1C [Compound P16] | > 80% | – | – | – | – | –
9 | CCS(=O)(=O)c1cc(C(F)(F)F)cnc1-c1cnc(-c2cc(Cl)cc(Cl)c2)n1C [Compound P17] | > 80% | – | – | ≥ 80% | – | > 80%
10 | CCS(=O)(=O)c1cc(C(F)(F)F)cnc1-c1ncc(-c2ccc(Cl)cc2)n1C [Compound P18] | > 80% | – | – | ≥ 80% | – | > 80%
11 | CCS(=O)(=O)c1cc(C(F)(F)F)cnc1-c1ncc(-c2cc(C(F)(F)F)ccc2F)n1C [Compound P20] | > 80% | – | – | – | – | –
12 | CCS(=O)(=O)c1cc(C(F)(F)F)cnc1-c1ncc(-c2cccc(OC(F)(F)F)c2)n1C [Compound P22] | > 80% | – | – | ≥ 80% | – | –
13 | CCS(=O)(=O)c1cc(C(F)(F)F)cnc1-c1ncc(-c2ccc(Cl)nc2)n1C [Compound P23] | > 80% | – | ≥ 80% | ≥ 80% | – | > 80%
14 | CCS(=O)(=O)c1cc(C(F)(F)F)cnc1-c1ncc(-c2ccc(C(F)(C(F)(F)F)C(F)(F)F)cc2)n1C [Compound P24] | > 80% | – | – | ≥ 80% | – | > 80%
15 | CCS(=O)(=O)c1cc(C(F)(F)F)cnc1-c1ncc(-c2ccc(Cl)c(F)c2)n1C [Compound P25] | > 80% | – | ≥ 80% | ≥ 80% | > 80% | > 80%
16 | CCS(=O)(=O)c1cc(C(F)(F)F)cnc1-c1ncc(-c2cccc(C#N)n2)n1C [Compound P26] | > 80% | – | – | – | – | –
17 | CCS(=O)(=O)c1cc(C(F)(F)F)cnc1-c1ncc(-c2ccnc(Cl)c2)n1C [Compound P28] | > 80% | – | – | ≥ 80% | – | > 80%
18 | CCS(=O)(=O)c1cc(C(F)(F)F)cnc1-c1ncc(-c2cccc(C(F)(F)Cl)c2)n1C [Compound P29] | > 80% | – | – | ≥ 80% | > 80% | > 80%

Row | SMILES | mortality at 400 ppm [1] | mortality at 400 ppm [2] | mortality at 12.5 ppm [3] | percent control (mortality, anti-feedancy or growth inhibition) at 400 ppm [4] | mortality at 400 ppm [5] | mortality at 400 ppm [6]
19 | CCS(=O)(=O)c1cc(C(F)(F)F)cnc1-c1ncc(-c2ccc(C(F)(F)F)cc2Cl)n1C [Compound P30] | > 80% | – | – | ≥ 80% | – | –
20 | CCS(=O)(=O)c1cc(C(F)(F)F)cnc1-c1ncc(-c2cc(C#N)ccc2Cl)n1C [Compound P32] | > 80% | – | – | – | – | –
21 | CCS(=O)(=O)c1cc(C(F)(F)F)cnc1-c1ncc(-c2ccc(Cl)c(Cl)c2F)n1C [Compound P33] | > 80% | – | – | ≥ 80% | – | > 80%
22 | CCS(=O)(=O)c1cc(C(F)(F)F)cnc1-c1ncc(-c2cccc(Cl)c2)n1C [Compound P34] | > 80% | – | – | – | – | –
23 | CCS(=O)(=O)c1cc(C(F)(F)F)cnc1-c1ncc(-c2ccc(Cl)c(Cl)c2)n1C [Compound P35] | > 80% | – | – | ≥ 80% | > 80% | > 80%
24 | CCS(=O)(=O)c1cc(C(F)(F)F)cnc1-c1ncc(-c2cc(F)cc(F)c2)n1C [Compound P36] | > 80% | – | – | – | – | –
25 | CCS(=O)(=O)c1cc(C(F)(F)F)cnc1-c1ncc(-c2ccc(Cl)c(C(F)(F)F)c2)n1C [Compound P38] | > 80% | – | ≥ 80% | ≥ 80% | > 80% | > 80%
26 | CCS(=O)(=O)c1cc(C(F)(F)F)cnc1-c1ncc(-c2ccc(OC(F)(F)F)cc2)n1C [Compound P40] | > 80% | – | ≥ 80% | ≥ 80% | > 80% | > 80%
27 | CCS(=O)(=O)c1cc(C(F)(F)F)cnc1-c1ncc(-c2cccc(C#N)c2)n1C [Compound P41] | > 80% | – | ≥ 80% | ≥ 80% | – | –
28 | CCS(=O)(=O)c1cc(C(F)(F)F)cnc1-c1ncc(-c2ccc(F)c(F)c2)n1C [Compound P43] | > 80% | – | ≥ 80% | ≥ 80% | – | > 80%
29 | CCS(=O)(=O)c1cc(C(F)(F)F)cnc1-c1ncc(-c2cc(F)c(F)c(F)c2)n1C [Compound P44] | > 80% | – | – | ≥ 80% | – | > 80%
30 | CCS(=O)(=O)c1cc(C(F)(F)F)cnc1-c1ncc(-c2ccc(C#N)cc2)n1C [Compound P45] | > 80% | – | ≥ 80% | ≥ 80% | – | > 80%
31 | CCS(=O)(=O)c1cc(C(F)(F)F)cnc1-c1ncc(-c2ccc(C#N)nc2)n1C [Compound P47] | > 80% | – | – | ≥ 80% | – | –
32 | CCS(=O)(=O)c1cc(C(F)(F)F)cnc1-c1ncc(-c2ccc3c(c2)OC(F)(F)O3)n1C [Compound P48] | > 80% | – | – | ≥ 80% | – | > 80%
33 | CCS(=O)(=O)c1cc(C(F)(F)F)cnc1-c1ncc(-c2ccc(C(F)(F)F)c(C(F)(F)F)c2)n1C [Compound P49] | > 80% | – | – | ≥ 80% | – | > 80%
34 | CCS(=O)(=O)c1cc(C(F)(F)F)cnc1-c1ncc(-c2cc(C(F)(F)F)cc(Cl)n2)n1C [Compound P51] | > 80% | – | – | ≥ 80% | – | > 80%
35 | CCS(=O)(=O)c1cc(C(F)(F)F)cnc1-c1ncc(-c2cc(C(F)(F)F)cc(C(F)(F)F)c2)n1C [Compound P52] | > 80% | – | – | ≥ 80% | – | > 80%
36 | CCS(=O)(=O)c1cc(C(F)(F)F)cnc1-c1ncc(-c2ccc(F)c(Cl)c2)n1C [Compound P53] | > 80% | – | – | ≥ 80% | – | > 80%
